Literature values, collected in paper PMC2192333 (The Journal of Experimental Medicine, 1996).
Blank lines part the entries; values can stand above or below the substance they belong to.

Key:
C3bi = settings: mutation in CD11b

binding to C3bi (C3bi): abohshed binding to C3bi
Substance: Asp-140GlySer to AlaGlyAla: mutation of the closely related integrin CD11b

binding to ICAM-3 (ICAM-3): high affinity
Substance: CD11d/CD18: recently described fourth member of the CD18 integrins

binding of murine LFA-1 to human ICAM-1 (human ICAM-1): does not bind human ICAM-1
Substance: murine LFA-1: murine leukocyte integrin LFA-1
